{"source": "patent US20250058082A1", "about": "“TRANSPERINEAL, TRANSRECTAL OR TRANSURETHRAL ADMINISTRATION OF ANTI-PROSTATE CANCER AGENTS FOR TREATING PROSTATE CANCER” (JESSENIUS FACULTY OF MEDICINE OF COMENIUS UNIVERSITY IN …, priority 2021, published 2025)", "key": {"[1]": {"tested_on": "canine prostate", "details": "for lesion volume: 1 cm porous segment, 2 h after injection", "method": "Intraprostatic ethanol injections were performed in eight Beagle dogs for acute experiments. Animals received premedication with medetomidin (0.004 mg/kg), metadon (0.3 mg/kg), and acepromazil (0.02 mg/kg). Anesthesia was induced with propofol (1.5-2 mg/kg) and maintained by propofol (10 mg/kg/hour) and fentanyl (0.24 mg/kg/hour). Prostate exposure was performed using lower midline abdominal incisions and blunt dissection of surrounding tissues. The porous needle was stabilized with a fixation apparatus attached to the operating table and was deployed with a protective sheath in the lateral lobe of the prostate. […] Where possible, the distal end of the sheath was kept at least 2 mm from the pseudocapsule. […] Injections in both lateral lobes of each canine were performed. […] In the remaining experiments, 0.5, 1, 1.5, or 2 ml was injected into each prostatic lobe. In five experiments, a needle with a 1 cm long microporous segment was used, while a 2 cm long segment was used in one experiment. The tissue resistance during injections was measured by including the pressure transduced between the pump and the needle. Two hours following the second injection, the animals were anaesthetised by an intramuscular injection of medetomidine and ketamine, followed by intravenous injection of pentobarbital, and euthanized using exsanguination.\nHistology slides were converted to digital images."}, "[2]": {"tested_on": "human prostate", "assay": "Transperineal intraprostatic EtOH injection in heart-beating cadaveric organ donors", "details": "for average volume of the lesion: five human prostates, 1 cm porous segment"}, "[3]": {"tested_on": "canine prostate", "assay": "Chronic canine experiment: intraprostatic EtOH injection, four weeks observation, autopsy and histology"}}, "note": "Several values for one entry are separate records, joined by “and”; a condition that tells them apart may be missing. Identical values can stand only once. Like-named read-outs stand apart in the source and are kept apart here."}
{"smiles": "CCO", "note": "[EtOH, ethanol]", "values": [{"measurement": "lesion volume", "setting": "[1]; 0.5 ml EtOH injected per lobe", "result": "208±58", "unit": "mm^3"}, {"measurement": "lesion volume", "setting": "[1]; 1.0 ml EtOH injected per lobe", "result": "588±112", "unit": "mm^3"}, {"measurement": "lesion volume", "setting": "[1]; 1.5 ml EtOH injected per lobe", "result": "791±338", "unit": "mm^3"}, {"measurement": "tissue infiltration with 2 cm porous segment needle", "setting": "[1]; 2 cm porous segment compared with 1 cm", "result": "larger areas of tissue infiltration"}, {"measurement": "lesion volume", "setting": "[1]; 2.0 ml EtOH injected per lobe", "result": "1158±200", "unit": "mm^3"}, {"measurement": "necrotic areas, share of the section", "setting": "[1]; canine prostate section, FIG. 4", "result": "more than 80%"}, {"measurement": "extraprostatic leak during injection", "setting": "[1]; dog, in vivo", "result": "No extraprostatic leak"}, {"measurement": "prostatic pseudocapsule integrity", "setting": "[1]; dog, in vivo", "result": "remained intact without evidence of disruption"}, {"measurement": "average volume of the lesion", "setting": "[2]; 2 ml injected per lobe", "result": 0.978, "unit": "mL"}, {"measurement": "average volume of the lesion", "setting": "[2]; 3 ml injected per lobe", "result": 1.742, "unit": "mL"}, {"measurement": "lesion size with 3 ml relative to 2 ml", "setting": "[2]; average, human prostates", "result": 1.78, "unit": "×"}, {"measurement": "extraprostatic tissue injury", "setting": "[2]; human prostates", "result": "no evidence to the extraprostatic tissue injury was observed"}, {"measurement": "lesion localization", "setting": "[2]; human prostates", "result": "In all cases the lesion was localized within the prostate"}, {"measurement": "prostatic capsule integrity", "setting": "[2]; human prostates", "result": "remained intact"}, {"measurement": "transient increase in body temperature", "setting": "[3]; animals with wound swelling, lasted less than 24 hours", "result": "38.5 °C and 39 °C"}, {"measurement": "extraprostatic leak during injection", "setting": "[3]; chronic study", "result": "free of exptraprostatic leak"}, {"measurement": "immediate complications", "setting": "[3]; chronic study", "result": "No immediate complications occurred"}, {"measurement": "long-term complications", "setting": "[3]; chronic study, four weeks observation", "result": "swelling of the wound in two animals and serous exudation in one animal"}, {"measurement": "damage to adjacent structures at prostatectomy", "setting": "[3]; four weeks after injection", "result": "no damage to adjacent structures"}, {"measurement": "tissue defects on whole mount sections", "setting": "[3]; four weeks after injection, H&E", "result": "tissue defects (cavities) in all prostatic lobes injected with 1, 1.5, and 2 ml"}, {"measurement": "prostatic pseudocapsule area", "setting": "[3]; four weeks after injection, histology", "result": "showed no abnormalities"}]}
